From PMC9927415, “Tyrosine Kinase Inhibitors Display Potent Activity against Cryptosporidium parvum” (Microbiology Spectrum, 2022)

Legend:
Experiment in all cases: KINOMEscan competitive binding, whole panel
[1] = target: T1, panel of 203 kinases (Homo sapiens, UniProt P51451); conditions: 10 µM, n=1; kinase BLK; read-out: Percent inhibition BLK
T1 construct: purchased DiscoverX (KINOMEscan)
How it was run: (§1)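 Percentage inhibition reflects loss of kinase binding to solid-phase ATP-site probe ligands in the presence of compound. Kinases carry a T7 bacteriophage fusion.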

[2] = target: T2, panel of 203 kinases (Homo sapiens, UniProt Q8IWQ3); conditions: 10 µM, n=1; kinase BRSK2; read-out: Percent inhibition BRSK2
T2 construct: purchased DiscoverX (KINOMEscan)
T2 sequence (Q8IWQ3 1-736): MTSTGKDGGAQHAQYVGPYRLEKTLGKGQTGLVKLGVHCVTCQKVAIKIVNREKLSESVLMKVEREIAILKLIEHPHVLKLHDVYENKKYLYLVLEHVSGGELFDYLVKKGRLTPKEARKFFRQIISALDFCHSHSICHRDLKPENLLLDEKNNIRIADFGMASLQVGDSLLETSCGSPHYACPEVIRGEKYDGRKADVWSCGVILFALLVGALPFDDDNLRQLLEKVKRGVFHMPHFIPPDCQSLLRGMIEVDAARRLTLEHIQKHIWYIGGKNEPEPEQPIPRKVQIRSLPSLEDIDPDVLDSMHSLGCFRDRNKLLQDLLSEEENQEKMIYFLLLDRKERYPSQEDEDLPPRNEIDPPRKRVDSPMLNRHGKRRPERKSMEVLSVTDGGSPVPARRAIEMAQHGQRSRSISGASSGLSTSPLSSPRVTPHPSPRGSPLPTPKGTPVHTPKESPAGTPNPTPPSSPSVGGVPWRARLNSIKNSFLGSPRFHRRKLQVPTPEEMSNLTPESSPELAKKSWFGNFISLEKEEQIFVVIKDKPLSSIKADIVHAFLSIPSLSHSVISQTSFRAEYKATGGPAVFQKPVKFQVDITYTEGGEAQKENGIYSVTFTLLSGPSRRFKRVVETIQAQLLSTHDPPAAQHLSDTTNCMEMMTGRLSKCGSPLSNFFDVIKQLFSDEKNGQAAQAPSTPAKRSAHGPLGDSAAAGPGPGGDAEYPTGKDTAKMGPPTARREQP
How it was run: as §1

[3] = target: T3, panel of 203 kinases (Homo sapiens, UniProt Q9Y6R4); conditions: 10 µM, n=1; kinase MAP3K4; read-out: Percent inhibition MAP3K4
T3 construct: purchased DiscoverX (KINOMEscan)
T3 sequence (Q9Y6R4 whole entry): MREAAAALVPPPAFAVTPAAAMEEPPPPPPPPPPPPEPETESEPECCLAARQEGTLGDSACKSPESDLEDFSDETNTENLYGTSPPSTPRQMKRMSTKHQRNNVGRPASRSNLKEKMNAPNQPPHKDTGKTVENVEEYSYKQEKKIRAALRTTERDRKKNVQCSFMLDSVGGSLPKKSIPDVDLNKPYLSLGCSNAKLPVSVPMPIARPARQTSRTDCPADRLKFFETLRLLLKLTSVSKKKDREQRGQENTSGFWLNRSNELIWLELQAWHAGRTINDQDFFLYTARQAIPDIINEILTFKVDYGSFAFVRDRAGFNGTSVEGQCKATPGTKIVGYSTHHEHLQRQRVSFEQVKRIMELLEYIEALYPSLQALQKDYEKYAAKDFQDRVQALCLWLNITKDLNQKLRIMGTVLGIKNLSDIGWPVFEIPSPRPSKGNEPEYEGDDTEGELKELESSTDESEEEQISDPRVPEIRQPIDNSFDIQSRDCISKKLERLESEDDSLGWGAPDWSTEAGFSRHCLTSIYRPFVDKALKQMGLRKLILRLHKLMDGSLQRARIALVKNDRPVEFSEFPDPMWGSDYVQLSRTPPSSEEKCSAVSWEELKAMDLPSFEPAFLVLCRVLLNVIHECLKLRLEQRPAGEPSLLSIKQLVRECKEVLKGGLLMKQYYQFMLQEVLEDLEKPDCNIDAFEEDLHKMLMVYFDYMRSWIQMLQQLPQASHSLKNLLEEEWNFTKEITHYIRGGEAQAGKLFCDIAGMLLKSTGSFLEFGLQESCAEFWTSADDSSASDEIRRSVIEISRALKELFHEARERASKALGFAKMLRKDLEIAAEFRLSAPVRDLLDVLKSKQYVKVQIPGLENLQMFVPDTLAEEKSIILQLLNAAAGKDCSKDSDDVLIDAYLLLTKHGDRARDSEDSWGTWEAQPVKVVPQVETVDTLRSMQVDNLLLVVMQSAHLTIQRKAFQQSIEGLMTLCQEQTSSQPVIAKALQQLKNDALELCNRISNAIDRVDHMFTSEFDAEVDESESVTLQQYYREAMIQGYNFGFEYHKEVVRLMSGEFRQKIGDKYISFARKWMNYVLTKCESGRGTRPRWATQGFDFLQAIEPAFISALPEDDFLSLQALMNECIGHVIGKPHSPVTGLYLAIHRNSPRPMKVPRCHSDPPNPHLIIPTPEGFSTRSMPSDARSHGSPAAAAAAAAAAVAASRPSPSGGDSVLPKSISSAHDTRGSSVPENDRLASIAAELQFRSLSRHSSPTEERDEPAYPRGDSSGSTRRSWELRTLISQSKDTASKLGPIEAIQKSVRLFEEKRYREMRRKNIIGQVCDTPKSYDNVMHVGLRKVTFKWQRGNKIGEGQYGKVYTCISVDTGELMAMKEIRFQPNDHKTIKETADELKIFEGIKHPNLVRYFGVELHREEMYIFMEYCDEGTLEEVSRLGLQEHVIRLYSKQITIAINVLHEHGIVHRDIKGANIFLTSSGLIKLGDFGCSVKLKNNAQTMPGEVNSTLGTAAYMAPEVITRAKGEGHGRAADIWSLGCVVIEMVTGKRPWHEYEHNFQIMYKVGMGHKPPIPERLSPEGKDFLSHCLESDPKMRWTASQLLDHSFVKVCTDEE
How it was run: as §1

[4] = target: T4, panel of 203 kinases (Homo sapiens, UniProt O14976); conditions: 10 µM, n=1; kinase GAK; read-out: Percent inhibition GAK
T4 construct: purchased DiscoverX (KINOMEscan)
T4 sequence (O14976 1-1311): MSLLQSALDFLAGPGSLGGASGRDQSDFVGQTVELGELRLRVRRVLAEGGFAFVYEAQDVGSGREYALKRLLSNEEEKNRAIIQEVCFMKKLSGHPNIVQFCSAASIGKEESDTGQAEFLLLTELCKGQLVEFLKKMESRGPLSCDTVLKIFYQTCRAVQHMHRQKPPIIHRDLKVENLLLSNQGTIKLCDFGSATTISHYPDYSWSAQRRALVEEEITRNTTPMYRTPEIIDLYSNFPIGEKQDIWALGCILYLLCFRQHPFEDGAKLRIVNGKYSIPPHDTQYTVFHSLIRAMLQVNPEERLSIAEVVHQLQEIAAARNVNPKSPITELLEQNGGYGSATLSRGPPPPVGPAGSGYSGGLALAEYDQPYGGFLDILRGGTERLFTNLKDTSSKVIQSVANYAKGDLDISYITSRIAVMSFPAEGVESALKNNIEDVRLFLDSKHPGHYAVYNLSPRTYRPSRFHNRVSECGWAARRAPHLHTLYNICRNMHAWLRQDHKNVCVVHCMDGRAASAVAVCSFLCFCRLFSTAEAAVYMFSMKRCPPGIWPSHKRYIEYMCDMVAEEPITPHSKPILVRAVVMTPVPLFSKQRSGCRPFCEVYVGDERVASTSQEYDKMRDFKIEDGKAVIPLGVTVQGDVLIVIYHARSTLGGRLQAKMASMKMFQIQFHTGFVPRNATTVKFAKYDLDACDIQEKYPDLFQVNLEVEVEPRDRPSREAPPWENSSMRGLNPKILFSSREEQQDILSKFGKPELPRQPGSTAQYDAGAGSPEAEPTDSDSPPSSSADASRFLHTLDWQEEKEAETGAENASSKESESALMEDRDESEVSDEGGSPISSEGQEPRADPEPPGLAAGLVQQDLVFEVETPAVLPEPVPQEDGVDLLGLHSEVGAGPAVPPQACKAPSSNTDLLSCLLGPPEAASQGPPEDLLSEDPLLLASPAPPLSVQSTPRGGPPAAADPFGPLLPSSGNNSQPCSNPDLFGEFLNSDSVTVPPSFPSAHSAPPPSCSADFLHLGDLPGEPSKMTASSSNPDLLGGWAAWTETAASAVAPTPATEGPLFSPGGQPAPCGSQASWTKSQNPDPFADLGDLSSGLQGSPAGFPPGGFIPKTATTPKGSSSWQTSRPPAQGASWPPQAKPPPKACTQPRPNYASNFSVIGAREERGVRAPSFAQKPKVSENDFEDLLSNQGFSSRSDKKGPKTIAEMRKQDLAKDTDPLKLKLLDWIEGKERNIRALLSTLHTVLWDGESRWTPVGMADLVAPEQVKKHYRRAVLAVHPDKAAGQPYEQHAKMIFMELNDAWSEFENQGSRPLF
How it was run: as §1

[5] = target: T5, panel of 203 kinases (Homo sapiens, UniProt P06239); conditions: 10 µM, n=1; kinase LCK; read-out: Percent inhibition LCK
T5 construct: purchased DiscoverX (KINOMEscan)
T5 sequence (P06239 whole entry): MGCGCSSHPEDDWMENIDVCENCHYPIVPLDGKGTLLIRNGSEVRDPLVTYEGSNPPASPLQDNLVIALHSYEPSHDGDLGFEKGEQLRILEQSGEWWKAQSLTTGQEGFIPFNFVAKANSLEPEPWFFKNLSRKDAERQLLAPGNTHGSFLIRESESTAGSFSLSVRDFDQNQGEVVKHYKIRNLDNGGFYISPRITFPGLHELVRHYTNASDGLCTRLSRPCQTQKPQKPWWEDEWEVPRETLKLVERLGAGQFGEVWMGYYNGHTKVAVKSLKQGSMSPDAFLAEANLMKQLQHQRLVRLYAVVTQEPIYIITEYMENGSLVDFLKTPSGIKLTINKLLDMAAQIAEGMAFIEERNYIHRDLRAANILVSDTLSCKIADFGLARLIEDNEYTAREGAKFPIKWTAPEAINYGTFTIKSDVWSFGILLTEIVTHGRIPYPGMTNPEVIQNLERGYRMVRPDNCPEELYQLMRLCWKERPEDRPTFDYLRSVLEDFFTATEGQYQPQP
How it was run: as §1

[6] = target: T6, panel of 203 kinases (Homo sapiens, UniProt P08069); conditions: 10 µM, n=1; kinase IGF1R; read-out: Percent inhibition IGF1R
T6 construct: purchased DiscoverX (KINOMEscan)
T6 sequence (P08069 31-1367): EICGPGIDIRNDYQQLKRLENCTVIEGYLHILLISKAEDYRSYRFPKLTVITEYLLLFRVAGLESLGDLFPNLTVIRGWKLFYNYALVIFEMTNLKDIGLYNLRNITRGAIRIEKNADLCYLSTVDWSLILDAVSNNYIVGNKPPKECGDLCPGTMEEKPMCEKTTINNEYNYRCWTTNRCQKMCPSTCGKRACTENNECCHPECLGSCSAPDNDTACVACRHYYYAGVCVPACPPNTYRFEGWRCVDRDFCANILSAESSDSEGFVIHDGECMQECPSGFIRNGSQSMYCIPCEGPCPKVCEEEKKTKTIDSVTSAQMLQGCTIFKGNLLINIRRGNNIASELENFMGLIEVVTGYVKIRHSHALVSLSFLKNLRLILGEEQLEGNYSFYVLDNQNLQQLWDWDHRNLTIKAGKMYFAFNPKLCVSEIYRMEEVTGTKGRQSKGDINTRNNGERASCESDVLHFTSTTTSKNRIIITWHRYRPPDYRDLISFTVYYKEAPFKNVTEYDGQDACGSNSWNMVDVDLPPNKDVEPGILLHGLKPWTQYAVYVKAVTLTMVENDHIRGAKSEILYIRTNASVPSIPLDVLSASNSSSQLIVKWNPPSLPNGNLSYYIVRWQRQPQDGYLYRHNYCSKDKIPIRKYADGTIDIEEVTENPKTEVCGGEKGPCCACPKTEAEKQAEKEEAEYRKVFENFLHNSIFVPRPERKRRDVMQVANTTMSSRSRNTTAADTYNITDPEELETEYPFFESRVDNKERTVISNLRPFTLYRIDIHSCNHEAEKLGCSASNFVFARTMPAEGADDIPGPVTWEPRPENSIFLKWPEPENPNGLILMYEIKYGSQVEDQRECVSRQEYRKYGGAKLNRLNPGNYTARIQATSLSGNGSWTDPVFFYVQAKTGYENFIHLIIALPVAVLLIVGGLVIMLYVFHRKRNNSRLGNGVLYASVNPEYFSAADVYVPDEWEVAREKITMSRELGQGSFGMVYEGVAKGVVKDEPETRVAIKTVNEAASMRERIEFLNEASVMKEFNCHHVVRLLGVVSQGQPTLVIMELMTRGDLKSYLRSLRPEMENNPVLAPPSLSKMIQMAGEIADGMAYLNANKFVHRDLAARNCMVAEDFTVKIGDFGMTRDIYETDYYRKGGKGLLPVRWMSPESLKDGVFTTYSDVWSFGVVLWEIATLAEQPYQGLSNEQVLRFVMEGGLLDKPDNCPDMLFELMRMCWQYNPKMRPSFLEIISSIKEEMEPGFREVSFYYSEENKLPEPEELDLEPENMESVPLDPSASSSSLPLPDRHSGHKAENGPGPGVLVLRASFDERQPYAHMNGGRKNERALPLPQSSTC
How it was run: as §1

[7] = target: T7, panel of 203 kinases (Homo sapiens, UniProt P54764); conditions: 10 µM, n=1; kinase EPHA4; read-out: Percent inhibition EPHA4
T7 construct: purchased DiscoverX (KINOMEscan)
T7 sequence (P54764 20-986): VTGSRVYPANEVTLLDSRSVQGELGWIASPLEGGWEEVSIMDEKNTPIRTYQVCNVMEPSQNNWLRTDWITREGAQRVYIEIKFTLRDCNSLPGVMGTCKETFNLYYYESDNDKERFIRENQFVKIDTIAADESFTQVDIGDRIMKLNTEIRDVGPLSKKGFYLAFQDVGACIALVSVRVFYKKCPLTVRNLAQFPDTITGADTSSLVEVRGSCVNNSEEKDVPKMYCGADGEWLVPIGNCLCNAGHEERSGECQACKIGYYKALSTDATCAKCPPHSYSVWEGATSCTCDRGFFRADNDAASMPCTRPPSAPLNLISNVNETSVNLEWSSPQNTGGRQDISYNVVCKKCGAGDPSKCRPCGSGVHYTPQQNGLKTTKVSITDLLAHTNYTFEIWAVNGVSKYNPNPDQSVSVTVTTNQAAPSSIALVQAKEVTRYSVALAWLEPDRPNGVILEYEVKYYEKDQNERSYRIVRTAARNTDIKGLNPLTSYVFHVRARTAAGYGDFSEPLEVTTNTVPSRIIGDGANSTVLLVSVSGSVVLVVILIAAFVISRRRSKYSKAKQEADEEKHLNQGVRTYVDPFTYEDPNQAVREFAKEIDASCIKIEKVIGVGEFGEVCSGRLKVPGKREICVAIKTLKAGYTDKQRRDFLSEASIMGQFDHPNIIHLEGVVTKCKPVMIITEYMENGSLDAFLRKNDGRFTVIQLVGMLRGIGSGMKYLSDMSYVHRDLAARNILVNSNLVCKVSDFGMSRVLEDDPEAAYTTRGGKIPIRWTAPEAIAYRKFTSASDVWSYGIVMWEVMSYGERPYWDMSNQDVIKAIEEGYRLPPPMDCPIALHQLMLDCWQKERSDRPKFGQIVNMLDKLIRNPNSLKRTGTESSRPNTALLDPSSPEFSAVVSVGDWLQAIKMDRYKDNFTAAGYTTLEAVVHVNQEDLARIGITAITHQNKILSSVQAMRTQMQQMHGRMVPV
How it was run: as §1

T1 sequence (P51451 whole entry): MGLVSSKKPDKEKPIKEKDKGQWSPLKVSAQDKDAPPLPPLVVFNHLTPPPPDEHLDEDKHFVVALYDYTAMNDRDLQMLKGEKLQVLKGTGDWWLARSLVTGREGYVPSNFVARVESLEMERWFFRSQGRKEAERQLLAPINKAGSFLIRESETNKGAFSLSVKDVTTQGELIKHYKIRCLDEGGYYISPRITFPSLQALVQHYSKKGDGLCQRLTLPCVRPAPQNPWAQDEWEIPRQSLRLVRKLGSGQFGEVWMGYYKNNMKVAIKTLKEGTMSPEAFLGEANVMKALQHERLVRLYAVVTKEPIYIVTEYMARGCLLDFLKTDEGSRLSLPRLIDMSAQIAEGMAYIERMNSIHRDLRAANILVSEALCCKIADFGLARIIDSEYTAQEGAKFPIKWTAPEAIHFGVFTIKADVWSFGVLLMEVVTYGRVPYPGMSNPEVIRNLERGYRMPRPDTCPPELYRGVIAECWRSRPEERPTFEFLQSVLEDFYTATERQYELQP

Row | Compound | inhibition at 10 µM [1] [%] | inhibition at 10 µM [2] [%] | inhibition at 10 µM [3] [%] | inhibition at 10 µM [4] [%] | inhibition at 10 µM [5] [%] | inhibition at 10 µM [6] [%] | inhibition at 10 µM [7] [%]
1 | Cc1ccc(O)cc1Nc1ccnc(Nc2cccc(C(N)=O)c2)n1 [Compound 3] | 99.6 | 0 | 0 | 99.8 | 99.6 | 0 | 100
2 | Cc1ccc(O)cc1N(C)c1ccnc(Nc2cccc(S(N)(=O)=O)c2)n1 [Compound 4] | 99.4 | 0 | 0 | 99.6 | 99.8 | 0 | 100
3 | CN1CCN(c2ccc(Nc3nccc(-c4cnn5ncccc45)n3)cc2C#N)CC1 [Compound 1] | 84.8 | 0 | 91 | 97.9 | 97.6 | 99.4 | 0
4 | Clc1ccc(Nc2ncc(-c3ccccc3)s2)cc1 [Compound 10] | 0 | 0 | 0 | 0 | 0 | 0 | 0
5 | Nc1ncc2c(-c3ccncc3)c[nH]c2n1 [Compound 11] | 0 | 0 | 0 | 97.2 | 0 | 0 | 0
6 | Fc1cccc(COc2ccc(Nc3ncnc4c3CN(CCN3CCOCC3)CC4)cc2Cl)c1 [Compound 6] | 0 | 0 | 0 | 0 | 0 | 0 | 0
7 | COc1ccc(Nc2nccc(-c3cnn4ncccc34)n2)cc1 [Compound 2] | 63.8 | 0 | 0 | 99.9 | 0 | 98.1 | 0
8 | C[C@@H](Oc1cc(-c2cnc3ccccn23)sc1C(N)=O)c1ccccc1Cl [Compound 8] | 0 | 91.2 | 0 | 97.2 | 0 | 0 | 0
9 | COc1cc(Nc2nccc(-c3sc(N)nc3-c3cccc(NC(=O)c4c(F)cccc4F)c3)n2)cc(OC)c1OC [Compound 7] | 99 | 0 | 99.6 | 100 | 99.5 | 95.9 | 99.8
10 | c1ccc(COc2cccc(-c3ccnc4[nH]ccc34)c2)cc1 [Compound 9] | 0 | 0 | 0 | 0 | 0 | 0 | 0
